Test results taken from paper PMC4305095, “Characterization of Aspergillus aculeatus β-glucosidase 1 accelerating cellulose hydrolysis with Trichoderma cellulase system” (AMB Express, 2015).

Target: T1, rAaBGL1 (Aspergillus aculeatus β-glucosidase 1) (Aspergillus aculeatus, UniProt P48825)
T1 construct: full AaBGL1 gene amplified from A. aculeatus genomic DNA, own signal peptide, no tag mentioned; expressed in Aspergillus oryzae niaD300, released from cell surface
T1 sequence (P48825 20-860): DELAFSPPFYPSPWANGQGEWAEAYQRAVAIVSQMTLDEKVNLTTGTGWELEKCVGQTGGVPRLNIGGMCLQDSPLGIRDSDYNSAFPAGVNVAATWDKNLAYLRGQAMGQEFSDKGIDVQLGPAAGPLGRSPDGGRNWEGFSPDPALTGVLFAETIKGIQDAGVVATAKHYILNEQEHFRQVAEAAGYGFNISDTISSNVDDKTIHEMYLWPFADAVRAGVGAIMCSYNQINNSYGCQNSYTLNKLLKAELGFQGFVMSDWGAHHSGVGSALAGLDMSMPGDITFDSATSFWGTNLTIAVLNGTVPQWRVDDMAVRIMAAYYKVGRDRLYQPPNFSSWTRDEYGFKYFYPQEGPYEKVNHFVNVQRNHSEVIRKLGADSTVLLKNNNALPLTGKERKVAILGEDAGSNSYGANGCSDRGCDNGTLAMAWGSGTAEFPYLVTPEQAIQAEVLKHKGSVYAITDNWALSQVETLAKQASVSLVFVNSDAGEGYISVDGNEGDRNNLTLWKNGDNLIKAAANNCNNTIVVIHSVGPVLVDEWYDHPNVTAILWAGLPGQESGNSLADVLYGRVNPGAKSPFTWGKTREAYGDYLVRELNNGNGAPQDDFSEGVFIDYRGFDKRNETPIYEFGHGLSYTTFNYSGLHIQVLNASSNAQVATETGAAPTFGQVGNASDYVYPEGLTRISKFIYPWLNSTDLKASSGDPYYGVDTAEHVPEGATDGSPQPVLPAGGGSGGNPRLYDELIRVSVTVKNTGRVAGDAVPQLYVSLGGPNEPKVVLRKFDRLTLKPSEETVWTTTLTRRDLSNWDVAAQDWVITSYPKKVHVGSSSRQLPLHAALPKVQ
Assay: pNP-Glc hydrolysis, absorbance […] nm, Dixon plot
Type: biochemical
Details: 0.1-0.4 mM pNP-Glc, 20 mM sodium acetate pH 5.0, 37°C; competitive

With `OC[C@H]1OC(O)[C@H](O)[C@@H](O)[C@@H]1O` (stereo partly shown) [glucose] as the compound, how does the Ki read?
Its Ki is 9.99 ± 0.94 mM.
